Results published in patent publication US7875620B2, “Methods of treating microbial infections” (Piper Medical, Inc., priority 2005, dated 2011).

What was measured:
Assay in all cases: Growth inhibition on agar plates, crystalline material swabbed on
Format in all cases: cell-based
Staphylococcus aureus = system: Staphylococcus aureus
Excerpt: (§1) A chalky, white substance presumptively identified as monosodium urate monohydrate crystals was extracted from the subcutaneous area of an elbow of a patient presenting with a soft tissue gouty tophus at the elbow. […] The crystalline substance was swabbed onto agar plates containing Staphylococcus aureus, Staphylococcus pyogenes, Neisseria meningitis, Neisseria gonorrhorea, Escherichia coli, Methicillin resistant Staphylococcus aureus, Haemophilus influenza or Serratia Marcessens. The crystalline material inhibited the growth of the microorganisms as indicated below in Table 1.

Escherichia coli = details: agar plate containing Escherichia coli
Excerpt: as §1

Neisseria gonorrhorea = details: agar plate containing Neisseria gonorrhorea
Excerpt: as §1

Haemophilus influenza = details: agar plate containing Haemophilus influenza
Excerpt: as §1

Neisseria meningitis = details: agar plate containing Neisseria meningitis
Excerpt: as §1

Staphylococcus pyogenes = details: agar plate containing Staphylococcus pyogenes
Excerpt: as §1

Serratia Marcessens = details: agar plate containing Serratia Marcessens
Excerpt: as §1

[1] = system: Methicillin resistant Staphylococcus aureus; details: agar plate containing Methicillin resistant Staphylococcus aureus
Excerpt: as §1

O.O=c1[n-]c2c(=O)[nH]c(=O)[nH]c2[nH]1.[Na+] [Monosodium Urate Monohydrate, monosodium urate monohydrate]
Inhibited growth: Antimicrobial activity (growth inhibition) (Staphylococcus aureus; agar plate containing Staphylococcus aureus) | Antimicrobial activity (growth inhibition) (Neisseria gonorrhorea) | Antimicrobial activity (growth inhibition) (Neisseria meningitis) | Antimicrobial activity (growth inhibition) (Staphylococcus pyogenes)
Did not inhibit growth: Antimicrobial activity (growth inhibition) (Escherichia coli) | Antimicrobial activity (growth inhibition) (Haemophilus influenza) | Antimicrobial activity (growth inhibition) (Serratia Marcessens) | Antimicrobial activity (growth inhibition) [1]
exhibited bacteriocidal activity: bacteriocidal activity (Staphylococcus aureus; against S. aureus)
